Assay results from the supplement of paper PMC9663587.

Legend:
Assay in all cases: area over the GR curve, 72 h; higher = more effect;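 also: Dye Drop or Deep Dye Drop imaging of viable cells in 384-well plates (Hoechst nuclei, LIVE/DEAD dye), nine half-log doses, GR normalized to DMSO controls and time-zero plates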
BT20 = tested on: BT20
CAL51 = tested on: CAL51
CAL851 = tested on: CAL851
HCC1143 = tested on: HCC1143
HCC1187 = tested on: HCC1187
HCC1937 = tested on: HCC1937
MDAMB330 = tested on: MDAMB330
MDAMB436 = tested on: MDAMB436
SUM190PT = tested on: SUM190PT
SUM229PE = tested on: SUM229PE
UACC812 = tested on: UACC812
UACC893 = tested on: UACC893
ZR751 = tested on: ZR751
ZR7530 = tested on: ZR7530

| SMILES | area over the GR curve (BT20) [GR] | area over the GR curve (CAL51) [GR] | area over the GR curve (CAL851) [GR] | area over the GR curve (HCC1143) [GR] | area over the GR curve (HCC1187) [GR] | area over the GR curve (HCC1937) [GR] | area over the GR curve (MDAMB330) [GR] | area over the GR curve (MDAMB436) [GR] | area over the GR curve (SUM190PT) [GR] | area over the GR curve (SUM229PE) [GR] | area over the GR curve (UACC812) [GR] | area over the GR curve (UACC893) [GR] | area over the GR curve (ZR751) [GR] | area over the GR curve (ZR7530) [GR] |
| --- | --- | --- | --- | --- | --- | --- | --- | --- | --- | --- | --- | --- | --- | --- |
| COc1cc2c(Oc3ccc4[nH]c(C)cc4c3F)ncnc2cc1OCCCN1CCCC1 [Cediranib/AZD2171] (max 10 µM) | 0.0199 | 0.171 | 0.179 | 0.165 | 0.195 | 0.044 | 0.105 | 0.161 | -0.0464 | 0.0369 | 0.342 | 0.122 | 0.019 | 0.0237 |
| CNCc1ccc(-c2[nH]c3cc(F)cc4c3c2CCNC4=O)cc1 [Rucaparib] (max 10 µM) | 0.0785 | 0.0888 | 0.203 | 0.0731 | -0.119 | 0.0989 | 0.107 | 0.399 | 0.0862 | 0.047 | 0.0535 | 0.164 | 0.0837 | 0.25 |
| NC(=O)Nc1cc(-c2cccc(F)c2)sc1C(=O)N[C@H]1CCCNC1 [AZD7762] (max 10 µM) | 0.197 | 0.714 | 0.648 | 0.621 | 0.776 | 0.447 | 0.704 | 0.65 | 0.57 | 0.588 | 1.02 | 0.431 | 0.201 | 0.199 |
| CC(C)NC[C@@H](C(=O)N1CCN(c2ncnc3c2[C@H](C)C[C@H]3O)CC1)c1ccc(Cl)cc1 [Ipatasertib/GDC0068] (max 10 µM) | 0.311 | 0.224 | 0.166 | 0.0662 | 0.286 | 0.156 | 0.421 | 0.104 | 0.0489 | 0.1 | 0.173 | 0.529 | 0.0518 | 0.124 |
| C=CC(=O)Nc1ccc(C(=O)Nc2[nH]nc3c2CN(C(=O)N[C@H](CN(C)C)c2ccccc2)C3(C)C)cc1 [YKL-5-124] (max 10 µM) | 0.693 | 0.655 | 1.2 | 0.788 | 0.822 | 0.861 | 0.925 | 0.584 | 0.831 | 0.744 | 1.02 | 0.765 | 0.717 | 0.831 |
| CCc1cnn2c(NCc3ccc[n+]([O-])c3)cc(N3CCCC[C@H]3CCO)nc12 (max 1 µM) | 0.672 | 0.599 | 0.686 | 0.545 | 0.942 | 0.475 | 0.101 | 0.483 | 0.654 | 0.532 | 0.151 | 0.67 | 0.468 | 0.713 |
| CC(=O)c1c(C)c2cnc(Nc3ccc(N4CCN(CCOCCOCCOCCNC(=O)COc5cccc6c5C(=O)N(C5CCC(=O)NC5=O)C6=O)CC4)cn3)nc2n(C2CCCC2)c1=O (stereo unspecified) [BSJ-03-123] (max 10 µM) | 0.423 | 0.187 | 0.405 | 0.265 | -0.0405 | 0.0357 | 0.443 | 0.0446 | 0.568 | 0.286 | 0.367 | 0.34 | 0.267 | 0.387 |
| CN(C)C/C=C/C(=O)Nc1ccc(O[C@@H]2CCC[C@@H](Nc3ncc(Cl)c(-c4c[nH]c5ccccc45)n3)C2)cc1 [BSJ-01-175] (max 10 µM) | 0.812 | 0.434 | 0.822 | 0.684 | 1.08 | 0.462 | 1.22 | 0.82 | 1.16 | 0.745 | 0.571 | 0.927 | 0.189 | 0.989 |
| Nc1ccc(-c2ccc3ncc4ccc(=O)n(-c5cccc(C(F)(F)F)c5)c4c3c2)cn1 [Torin2] (max 1 µM) | 0.536 | 0.456 | 0.54 | 0.362 | 0.588 | 0.291 | 0.879 | 0.337 | 0.749 | 0.345 | 0.9 | 0.698 | 0.438 | 0.346 |
| CC[C@@H]1C(=O)N(C)c2cnc(Nc3ccc(C(=O)N[C@H]4CC[C@H](N5CCN(CC6CC6)CC5)CC4)cc3OC)nc2N1C(C)C [Volasertib/BI6727] (max 1 µM) | 0.79 | 0.679 | 0.717 | 0.729 | 0.883 | 0.497 | 0.778 | 0.662 | 0.621 | 0.605 | 0.734 | 0.813 | 0.263 | 0.753 |
| O=C1NC(=O)[C@@H](c2cn3c4c(cccc24)CCC3)[C@@H]1c1c[nH]c2ccccc12 [Tivantinib/ARQ197] (max 10 µM) | 0.416 | 0.359 | 0.518 | 0.498 | 0.891 | 0.29 | 0.368 | 0.421 | 0.637 | 0.661 | 0.667 | 0.405 | 0.255 | 0.457 |
| CN1CC[C@H](c2c(O)cc(O)c3c(=O)cc(-c4ccccc4Cl)oc23)[C@H](O)C1 [Flavopiridol] (max 1 µM) | 0.334 | 0.242 | 0.3 | 0.235 | 0.0933 | 0.238 | 0.285 | 0.224 | 0.348 | 0.3 | 0.419 | 0.321 | 0.152 | 0.236 |
| Cc1nc(Nc2ncc(C(=O)Nc3c(C)cccc3Cl)s2)cc(N2CCN(CCO)CC2)n1 [Dasatinib] (max 10 µM) | 0.329 | 0.516 | 0.57 | 0.447 | 0.618 | 0.442 | 0.183 | 0.102 | 0.32 | 0.529 | 1.15 | -0.149 | 0.687 | 0.426 |
| Cc1nc(-c2cn3c(n2)-c2ccc(-c4cnn(C(C)(C)C(N)=O)c4)cc2OCC3)n(C(C)C)n1 [Taselisib/GDC0032] (max 10 µM) | 0.736 | 0.546 | 0.55 | 0.476 | 0.497 | 0.277 | 1.15 | 0.173 | 0.298 | 0.397 | 0.693 | 1.43 | 0.393 | 0.798 |
| Cc1nc(NC(=O)N2CCC[C@H]2C(N)=O)sc1-c1ccnc(C(C)(C)C(F)(F)F)c1 [Alpelisib/BYL719] (max 10 µM) | 0.201 | 0.149 | 0.194 | 0.174 | 0.0302 | 0.0501 | 0.279 | 0.0552 | -0.103 | 0.128 | 0.381 | 0.492 | 0.0495 | 0.351 |
| COc1cc(N2CCN(C)CC2)ccc1Nc1ncc2c(n1)N(C)c1ccccc1C(=O)N2CC(F)(F)F [FMF-03-146-1] | 0.0278 | 0.0396 | 0.0805 | 0.0546 | -0.332 | 0.0547 | 0.0128 | -0.005 | 0.101 | 0.0104 | 0.0144 | -0.0085 | 0.0552 | 0.0601 |
| CN(C)CC[C@H](CSc1ccccc1)Nc1ccc(S(=O)(=O)NC(=O)c2ccc(N3CCN(Cc4ccccc4-c4ccc(Cl)cc4)CC3)cc2)cc1[N+](=O)[O-] [ABT-737] (max 10 µM) | 0.0208 | 0.0125 | -0.0516 | 0.102 | 0.526 | 0.0829 | 0.189 | -0.0008 | 0.492 | 0.0913 | 0.276 | -0.0097 | 0.0133 | -0.0351 |
| CO[C@@H](C)Cn1c(=O)n(C)c2cnc3ccc(-c4cncc(C(C)(C)O)c4)cc3c21 (max 10 µM) | 0.768 | 0.631 | 0.771 | 0.446 | 0.303 | 0.485 | 1.31 | 0.372 | 1.16 | 0.409 | 1.03 | 0.992 | 0.691 | 0.726 |
| CN(C)C/C=C/C(=O)Nc1ccc(C(=O)Nc2cccc(Nc3ncc(Cl)c(-c4c[nH]c5ccccc45)n3)c2)cc1 [THZ1] (max 1 µM) | 0.108 | 0.161 | 0.639 | 0.487 | 0.71 | 0.348 | 0.86 | 0.196 | 0.767 | 0.504 | 0.0711 | 0.542 | 0.162 | 0.561 |
| CS(=O)(=O)N1CCN(Cc2cc3nc(-c4cccc5[nH]ncc45)nc(N4CCOCC4)c3s2)CC1 [Pictilisib/GDC0941] (max 10 µM) | 0.296 | 0.19 | 0.36 | 0.32 | 0.374 | 0.211 | 0.53 | 0.133 | 0.143 | 0.137 | 0.6 | 0.323 | 0.324 | 0.465 |
| CN1CCN(C(=O)c2ccc3cc(CCNc4ncnc5ccc(C#N)cc45)ccc3c2)CC1 [senexin b] (max 10 µM) | 0.275 | 0.119 | 0.226 | 0.22 | -0.306 | 0.286 | 0.146 | 0.0859 | 0.435 | 0.21 | 0.421 | 0.185 | 0.05 | 0.274 |
| CC1(N)CCN(c2cnc(-c3cccc(Cl)c3Cl)c(N)n2)CC1 [SHP099] (max 10 µM) | 0.0072 | 0.03 | 0.137 | 0.0677 | -0.341 | 0.0653 | 0.121 | -0.0036 | 0.0478 | -0.0033 | 0.151 | -0.0199 | 0.0364 | -0.0067 |
| CNC(=O)c1cccc(-c2ccc3c(N4CCOC[C@@H]4C)nc(N4CCOC[C@@H]4C)nc3n2)c1 [AZD2014] (max 10 µM) | 0.484 | 0.485 | 0.637 | 0.422 | 0.296 | 0.52 | 1.38 | 0.363 | 0.844 | 0.484 | 1.13 | 0.845 | 0.8 | 0.749 |
| O=C(c1cc(Cc2n[nH]c(=O)c3ccccc23)ccc1F)N1CCN(C(=O)C2CC2)CC1 [Olaparib/AZD2281] (max 10 µM) | 0.0657 | 0.116 | 0.135 | 0.0925 | 0.157 | 0.0584 | 0.0605 | 0.305 | 0.0197 | 0.0365 | -0.0835 | 0.0342 | 0.0567 | 0.0601 |
| O=C1NC(=NCc2cccs2)SC1=Cc1ccc2ncccc2c1 [R0-3306] (max 10 µM) | 0.109 | 0.067 | 0.159 | 0.262 | 0.017 | 0.143 | 0.0605 | 0.0623 | 0.176 | 0.0926 | 0.142 | 0.0158 | 0.0473 | 0.113 |
| CC(C)n1nc(-c2ccc3oc(N)nc3c2)c2c(N)ncnc21 [INK128/MLN0128] (max 3.162 µM) | 0.568 | 0.553 | 0.626 | 0.474 | 0.416 | 0.369 | 1.08 | 0.429 | 0.791 | 0.379 | 1.22 | 0.745 | 0.679 | 0.533 |
| Nc1cc(C(F)(F)F)c(-c2cc(N3CCOCC3)nc(N3CCOCC3)n2)cn1 [Buparlisib/NVP-BKM120] (max 10 µM) | 0.359 | 0.328 | 0.442 | 0.392 | 0.425 | 0.263 | 0.442 | 0.292 | 0.253 | 0.279 | 0.806 | 0.587 | 0.256 | 0.371 |
| COc1cccc(OCCCN)c1-c1cc(Nc2cnc(C#N)cn2)n[nH]1 | 0.973 | 0.528 | 0.608 | 0.619 | 0.235 | 0.55 | 0.718 | 0.545 | 0.598 | 0.342 | 0.0047 | 0.171 | 0.3 | 0.0681 |
| Cc1nn(C)c(COc2ccc(N3CCN(S(=O)(=O)N(C)C)CC3)cc2)c1-c1cccc2c(CCCOc3cccc4ccccc34)c(C(=O)O)n(CCN3CCOCC3)c12 (max 10 µM) | -0.0396 | 0.0073 | 0.0108 | 0.064 | -0.0287 | 0.006 | 0.0479 | 0.014 | -0.063 | 0.0397 | 0.0654 | -0.0074 | -0.0518 | 0.0093 |
